Experimental data published in ChEMBL document CHEMBL1201862, “PubChem BioAssay data set” (2004).
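Values below derive from 48-hour exposures of cells grown in 96-well plates, with endpoints linearly interpolated between the two concentrations bracketing the appropriate inhibition level. At the GI50, growth is halved.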 Activity calls are given as the source filed them. No stated cut-off is given here; in the data, active = GI50 up to about 1.1 µM and inactive = higher.

Legend:
Assay in all cases: DTP human tumour cell line panel, 48 h
[1] = system: CAKI-1
[2] = system: Hs-578T
[3] = system: SW-620
[4] = system: SNB-19
[5] = system: CCRF-CEM
[6] = system: MDA-MB-231
[7] = system: PC-3
[8] = system: RXF 393
[9] = system: OVCAR-4
[10] = system: NCI-H460
[11] = system: OVCAR-8
[12] = system: IGROV-1
[13] = system: ACHN
[14] = system: NCI-H23
[15] = system: OVCAR-3
[16] = system: COLO 205
[17] = system: SF-539
[18] = system: OVCAR-5
[19] = system: LOX IMVI
[20] = system: SK-MEL-28

| SMILES | GI50 [1] | GI50 [2] | GI50 [3] | GI50 [4] | GI50 [5] | GI50 [6] | GI50 [7] | GI50 [8] | GI50 [9] | GI50 [10] | GI50 [11] | GI50 [12] | GI50 [13] | GI50 [14] | GI50 [15] | GI50 [16] | GI50 [17] | GI50 [18] | GI50 [19] | GI50 [20] |
| --- | --- | --- | --- | --- | --- | --- | --- | --- | --- | --- | --- | --- | --- | --- | --- | --- | --- | --- | --- | --- |
| COc1cc(=O)n2c3ccccc3n(C)c2c1C#N | > 100 µM (inactive) | > 100 µM (inactive) | > 100 µM (inactive) | > 100 µM (inactive) | > 100 µM (inactive) | > 100 µM (inactive) | > 100 µM (inactive) | > 100 µM (inactive) | > 100 µM (inactive) | > 100 µM (inactive) | > 100 µM (inactive) | > 100 µM (inactive) | 76.9 µM (inactive) | > 100 µM (inactive) | > 100 µM (inactive) | > 100 µM (inactive) | > 100 µM (inactive) | > 100 µM (inactive) |  |  |
| COc1cc2c(cc1OC)[C@@H]1[C@H](C#N)C(=O)C(C)(C)N1CC2 | > 100 µM (inactive) | > 100 µM (inactive) | > 100 µM (inactive) | > 100 µM (inactive) | > 100 µM (inactive) | 28.6 µM (inactive) | > 100 µM (inactive) |  | > 100 µM (inactive) | > 100 µM (inactive) | > 100 µM (inactive) | > 100 µM (inactive) | > 100 µM (inactive) | > 100 µM (inactive) | > 100 µM (inactive) | > 100 µM (inactive) |  | > 100 µM (inactive) | > 100 µM (inactive) | > 100 µM (inactive) |
| CN1C(=S)C(c2ccccc2)Sc2ccccc21 (stereo not drawn) | > 100 µM (inactive) | 35.6 µM (inactive) |  | > 100 µM (inactive) | 8.77 µM (inactive) | > 100 µM (inactive) | 17.6 µM (inactive) | 50.2 µM (inactive) | > 100 µM (inactive) | 27.8 µM (inactive) | 43.3 µM (inactive) | > 100 µM (inactive) | > 100 µM (inactive) | 55.7 µM (inactive) | 48.2 µM (inactive) | 47.4 µM (inactive) |  | 82 µM (inactive) | 77.1 µM (inactive) | > 100 µM (inactive) |
| N#Cc1nc(-c2cccc(-c3nc(C#N)c(N)o3)n2)oc1N | > 100 µM (inactive) | > 100 µM (inactive) | > 100 µM (inactive) | > 100 µM (inactive) | 21.2 µM (inactive) | > 100 µM (inactive) | > 100 µM (inactive) |  | > 100 µM (inactive) | > 100 µM (inactive) | > 100 µM (inactive) | > 100 µM (inactive) | > 100 µM (inactive) | > 100 µM (inactive) | > 100 µM (inactive) | > 100 µM (inactive) | > 100 µM (inactive) | > 100 µM (inactive) | > 100 µM (inactive) | > 100 µM (inactive) |
| Cc1ccc(S(=O)(=O)OC2=C/C(=N\c3onc(C)c3C)c3ccccc3C2=O)cc1 | 20 µM (inactive) | 38.5 µM (inactive) | 28.2 µM (inactive) | 26.7 µM (inactive) |  | 19.7 µM (inactive) | 20.6 µM (inactive) |  | 16.4 µM (inactive) | 32.8 µM (inactive) | 18.3 µM (inactive) | > 10 µM (inactive) | 26.3 µM (inactive) | 22.6 µM (inactive) | 16.5 µM (inactive) | 86.5 µM (inactive) | 31.8 µM (inactive) | 20.3 µM (inactive) | 18.6 µM (inactive) | 44.3 µM (inactive) |
| O=C(O)c1ccc(N/C(=C(/C(Cl)=C(Cl)Cl)[N+](=O)[O-])n2nnc3ccccc32)cc1 | > 100 µM (inactive) | > 100 µM (inactive) | > 100 µM (inactive) | > 100 µM (inactive) | > 100 µM (inactive) | > 100 µM (inactive) | > 100 µM (inactive) |  | > 100 µM (inactive) | > 100 µM (inactive) | > 100 µM (inactive) |  | > 100 µM (inactive) | > 100 µM (inactive) | > 100 µM (inactive) | > 100 µM (inactive) | > 100 µM (inactive) | > 100 µM (inactive) |  | > 100 µM (inactive) |
| C=CC1(c2ccc3ccccc3c2)OCC(CC)O1 (stereo not drawn) |  | 22.4 µM (inactive) | 46.2 µM (inactive) | 94 µM (inactive) | 29.6 µM (inactive) | 0.207 µM (active) | 28 µM (inactive) | 53.8 µM (inactive) | 55.6 µM (inactive) | 48.2 µM (inactive) | > 100 µM (inactive) | 33.9 µM (inactive) | 66.1 µM (inactive) | 32.3 µM (inactive) | 47 µM (inactive) | 36.1 µM (inactive) |  | 48.9 µM (inactive) | 21.8 µM (inactive) | > 100 µM (inactive) |
| COC(=O)C1CCC(=S)N1C(=O)OCc1ccccc1 (stereo not drawn) | > 100 µM (inactive) | 49.4 µM (inactive) | 83.2 µM (inactive) | > 100 µM (inactive) | 3.61 µM (inactive) | > 100 µM (inactive) | > 100 µM (inactive) | 28.4 µM (inactive) | > 100 µM (inactive) | 39.5 µM (inactive) | > 100 µM (inactive) | > 100 µM (inactive) | > 100 µM (inactive) | > 100 µM (inactive) | 78.3 µM (inactive) | > 100 µM (inactive) |  | > 100 µM (inactive) |  | > 100 µM (inactive) |
| CCC(=O)Nc1ccc(/N=C/c2cccc(Oc3ccccc3)c2)cc1 | > 100 µM (inactive) | > 100 µM (inactive) | 37 µM (inactive) | > 100 µM (inactive) | 12.6 µM (inactive) |  | 64.4 µM (inactive) | 50.9 µM (inactive) | 55.3 µM (inactive) |  | 22.3 µM (inactive) | 63.4 µM (inactive) | > 100 µM (inactive) | > 100 µM (inactive) | 63.8 µM (inactive) | 44.6 µM (inactive) | 16.4 µM (inactive) |  | 29.6 µM (inactive) | 86.9 µM (inactive) |
| Cc1ccccc1/N=N/c1ccc(/N=N/c2c(O)ccc3ccccc23)c(C)c1 [SCARLET RED] | > 100 µM (inactive) | 44.2 µM (inactive) | > 100 µM (inactive) | 81.7 µM (inactive) | > 10 µM (inactive) | > 100 µM (inactive) | > 100 µM (inactive) | > 100 µM (inactive) | > 100 µM (inactive) |  | > 100 µM (inactive) | > 100 µM (inactive) | > 100 µM (inactive) | > 100 µM (inactive) | > 100 µM (inactive) | > 100 µM (inactive) |  | > 100 µM (inactive) | > 100 µM (inactive) | > 100 µM (inactive) |
| CC(=O)O[C@H]1CC[C@@]2(C)C(=CC[C@@H]3[C@@H]2CC[C@]2(C)c4c(cc(C#N)c(=N)n4C(C)=O)C[C@@H]32)C1 | 30.8 µM (inactive) | 25.5 µM (inactive) | 19.4 µM (inactive) | 28 µM (inactive) | 3.6 µM (inactive) | 31.1 µM (inactive) | 21.5 µM (inactive) | 22.6 µM (inactive) | 18.7 µM (inactive) | 16.4 µM (inactive) | 16.7 µM (inactive) | 22.2 µM (inactive) | 20.1 µM (inactive) | 15.3 µM (inactive) | 17.6 µM (inactive) | 16.1 µM (inactive) |  | 27.4 µM (inactive) | 16.7 µM (inactive) | 18.7 µM (inactive) |
| CCOP(=O)(Nc1ccc(-c2ccc(N)cc2)cc1)OCC | > 100 µM (inactive) | 43.6 µM (inactive) |  | 94.8 µM (inactive) |  | > 100 µM (inactive) | > 100 µM (inactive) | 35.2 µM (inactive) | > 100 µM (inactive) | > 100 µM (inactive) | > 100 µM (inactive) | > 100 µM (inactive) | > 100 µM (inactive) | > 100 µM (inactive) | > 100 µM (inactive) | > 100 µM (inactive) |  | 51.6 µM (inactive) |  | > 100 µM (inactive) |
| Cc1cccc2c(=O)c3cccc([C@H](C)C(=O)O)c3oc12 | > 100 µM (inactive) | > 100 µM (inactive) | > 100 µM (inactive) | > 100 µM (inactive) | > 100 µM (inactive) | > 100 µM (inactive) | > 100 µM (inactive) |  | > 100 µM (inactive) | > 100 µM (inactive) | > 100 µM (inactive) | > 100 µM (inactive) | > 100 µM (inactive) | > 100 µM (inactive) | > 100 µM (inactive) | > 100 µM (inactive) | > 100 µM (inactive) |  | > 100 µM (inactive) | > 100 µM (inactive) |
| COc1ccc(N2C(=O)CC(Cl)C2=O)cc1 (stereo not drawn) |  | > 100 µM (inactive) | 18.7 µM (inactive) | > 100 µM (inactive) |  | 17.4 µM (inactive) | 52.2 µM (inactive) | 20 µM (inactive) | 19.1 µM (inactive) | > 100 µM (inactive) | 16.6 µM (inactive) | > 100 µM (inactive) | 17.9 µM (inactive) | 23.3 µM (inactive) | 15.2 µM (inactive) | 16.4 µM (inactive) | 18.2 µM (inactive) | 18.2 µM (inactive) | 23.3 µM (inactive) | 16.6 µM (inactive) |
| O=C(O)[C@@]1(Cc2ccc(O)cc2)C[C@@H]2Cc3ccccc3N2N1 | > 100 µM (inactive) | > 100 µM (inactive) | > 100 µM (inactive) | > 100 µM (inactive) | > 100 µM (inactive) | > 100 µM (inactive) | > 100 µM (inactive) |  | > 100 µM (inactive) |  | > 100 µM (inactive) | > 100 µM (inactive) | > 100 µM (inactive) | > 100 µM (inactive) | > 100 µM (inactive) | > 100 µM (inactive) | > 100 µM (inactive) | > 100 µM (inactive) | > 100 µM (inactive) | > 100 µM (inactive) |
